Active and inactive are the calls of the source. No cut-off for these calls is given here.

Series [1] can be described thus: Stability of compound in PBS at pH 7.4 assessed as parent compound remaining at 100 uM measured after 48 hrs by HPLC analysis. In kind it is physicochemical. The settings on record: read-out: Stability.
A short description of series [2]: Cytotoxicity against human BEAS-2B cells with low TrxR expression assessed as reduction in cell viability incubated for 48 hrs by MTT assay. The class given is toxicity, cell-based. A general note: Formazan colour is commonly taken as a measure of viable cells.
A short description of series [3]: Stability in human plasma assessed as parent compound remaining at 100 uM measured after 48 hrs by HPLC analysis. In kind it is ADME, cell-free. The settings on record: read-out: Stability.
Series [4] concerns HepG2. As to the kind of experiment: Cytotoxicity against human HepG2 cells with high TrxR expression assessed as reduction in cell viability incubated for 48 hrs by MTT assay. The settings on record: HepG2, 48 h. The class given is functional, cell-based.
Series [5] is described as follows: Cytotoxicity against human HEK293T cells with low TrxR expression assessed as reduction in cell viability incubated for 48 hrs by MTT assay. In kind it is toxicity, cell-based, HEK-293T.
Series [6] in a line: Prodrug activation assessed as TrxR (unknown origin) mediated compound reduction by measuring absorbance at 340 nm at 150 uM in presence of NADPH. The settings on record: human.
For series [7], the system named is HL-60. Description: Cytotoxicity against human HL-60 cells with low TrxR expression assessed as reduction in cell viability incubated for 48 hrs by MTT assay. The note with it: HL-60, 48 h. The class given is functional, cell-based.
Series [8] concerns HeLa. Description: Cytotoxicity against human HeLa cells with high TrxR expression assessed as reduction in cell viability incubated for 48 hrs by MTT assay. The class given is functional, cell-based.
Series [9] is described as follows: Stability in mouse plasma assessed as parent compound remaining at 100 uM measured after 48 hrs by HPLC analysis. The note with it: read-out: Stability. In kind it is ADME, cell-free.
Series [10] has as its system MCF7. Description: Cytotoxicity against human MCF7 cells with low TrxR expression assessed as reduction in cell viability incubated for 48 hrs by MTT assay. The class given is functional, cell-based. The note with it: MCF7, 48 h.
Series [11] in a line: Prodrug activation in human HepG2 cells assessed as increase in biotin labelling at 1 uM incubated for 12 hrs by Western blotting analysis. The settings on record: hepg2, 12 h. The class given is cell-based. (A western blot detects proteins with antibodies after separation by electrophoresis.)
A short description of series [12]: Prodrug conversion in human HepG2 cells assessed as proteome incorporation at 1 uM pretreated with AF for 30 mins followed by compound addition. In kind it is ADME, cell-based. The note with it: hepg2, 1 µM.
The nature of series [13]: Prodrug activation in human HepG2 cells assessed as increase in rhodamine labelling at 1 uM incubated for 12 hrs by in-gel fluorescence imaging analysis. In kind it is cell-based. The settings on record: hepg2, 12 h.
Series [14] has as its target T1, Thioredoxin (Homo sapiens) (UniProt P10599).
T1 sequence (whole entry): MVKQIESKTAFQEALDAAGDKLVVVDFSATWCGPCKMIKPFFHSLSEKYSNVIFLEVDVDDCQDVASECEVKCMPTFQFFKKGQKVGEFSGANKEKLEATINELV
As to the kind of experiment: Substrate activity at Trx (unknown origin) assessed as reduction in 2-((2-hydroxyethyl)disulfaneyl)ethyl ((S)-1-(((2S,3S,4R,5R)-5-(6-(dimethylamino)-9H-purin-9-yl)-4-hydroxy-2-(hydroxymethyl)tetrahydrofuran-3-yl)amino)-3-(4-methoxyphenyl)-1-oxopropan-2-yl)carbamate level by measuring absorbance at 340 nm at 150 uM in presence of NADPH.

Series [15] is described as follows: Prodrug activation assessed as GSH mediated compound reduction by measuring absorbance at 340 nm at 150 uM in presence of NADPH.
The nature of series [16]: Prodrug activation in human HepG2 cells assessed as increase in biotin labelling at 10 uM incubated for 12 hrs by Western blotting analysis. In kind it is cell-based. The settings on record: hepg2, 12 h.
The nature of series [17]: Prodrug conversion in human HepG2 cells assessed as inhibition of proteome incorporation at 1 uM pretreated with AF for 30 mins followed by compound addition. The class given is cell-based. The settings on record: hepg2, 1 µM.
Series [18] can be described thus: Prodrug activation in human HepG2 cells assessed as increase in rhodamine labelling at 10 uM incubated for 12 hrs by in-gel fluorescence imaging analysis. The class given is cell-based. The note with it: hepg2, 12 h.
For series [19], the system named is HepG2. As to the kind of experiment: Cytotoxicity against human HepG2 cells expressing shNT assessed as reduction in cell viability incubated for 48 hrs by MTT assay. The settings on record: HepG2, 48 h. The class given is functional, cell-based.
Series [20] is described as follows: Prodrug activation assessed as increase in TrxR (unknown origin) mediated NADPH oxidation by measuring absorbance at 340 nm at 150 uM. The settings on record: human.
In series [21] the test system is HepG2. As to the kind of experiment: Cytotoxicity against human HepG2 cells expressing shTXNRD1 assessed as reduction in cell viability incubated for 48 hrs by MTT assay. The class given is functional, cell-based. The note with it: HepG2, 48 h.
The test system of another series is HEK-293T. As to the kind of experiment: Potency index, ratio of test compound IC50 to puromycin IC50 for cytotoxicity against human HEK293T cells. The class given is functional.
Series [22] concerns HeLa. Description: Potency index, ratio of test compound IC50 to puromycin IC50 for cytotoxicity against human HeLa cells. The class given is functional.
The subject of series [23] is HepG2. Description: Potency index, ratio of test compound IC50 to puromycin IC50 for cytotoxicity against human HepG2 cells. The class given is functional.
For series [24], the target named is T1, Thioredoxin (Homo sapiens). Description: Substrate activity at Trx (unknown origin) assessed as reduction in 1,2-dithiolan-4-yl ((S)-1-(((2S,3S,4R,5R)-5-(6-(dimethylamino)-9H-purin-9-yl)-4-hydroxy-2-(hydroxymethyl)tetrahydrofuran-3-yl)amino)-3-(4-methoxyphenyl)-1-oxopropan-2-yl)carbamate level by measuring absorbance at 340 nm at 150 uM in presence of NADPH.

Series [25] deals with MCF7. As to the kind of experiment: Potency index, ratio of test compound IC50 to puromycin IC50 for cytotoxicity against human MCF7 cells. The class given is functional.
For series [26], the system named is HL-60. As to the kind of experiment: Potency index, ratio of test compound IC50 to puromycin IC50 for cytotoxicity against human HL-60 cells. In kind it is functional.
Series [27] is described as follows: Prodrug activation in human HeLa cell lysate assessed as reduction in 1,2-dithiolan-4-yl ((S)-1-(((2S,3S,4R,5R)-5-(6-(dimethylamino)-9H-purin-9-yl)-4-hydroxy-2-(hydroxymethyl)tetrahydrofuran-3-yl)amino)-3-(4-methoxyphenyl)-1-oxopropan-2-yl)carbamate level by measuring absorbance at 340 nm at 150 uM pretreated with TrxR inhibitor AF for 30 mins followed by compound addition in presence of NADPH. The class given is ADME, subcellular.

Series [28] in a line: Prodrug activation in human HeLa cell lysate expressing shTXNRD1 assessed as reduction in 1,2-dithiolan-4-yl ((S)-1-(((2S,3S,4R,5R)-5-(6-(dimethylamino)-9H-purin-9-yl)-4-hydroxy-2-(hydroxymethyl)tetrahydrofuran-3-yl)amino)-3-(4-methoxyphenyl)-1-oxopropan-2-yl)carbamate level by measuring absorbance at 340 nm at 150 uM pretreated with TrxR inhibitor AF for 30 mins followed by compound addition in presence of NADPH. In kind it is ADME, subcellular.

In a further series the test system is BEAS-2B. As to the kind of experiment: Potency index, ratio of test compound IC50 to puromycin IC50 for cytotoxicity against human BEAS-2B cells. In kind it is functional.

For `COc1ccc(C[C@H](NC(=O)OCCCCCCO)C(=O)N[C@H]2[C@@H](O)[C@H](n3cnc4c(N(C)C)ncnc43)O[C@@H]2CO)cc1`, the remaining at 48 h, 100 µM in series [1], in series [3] and in series [9] was above 90% throughout. Further, the IC50 at 48 h in series [2] and in series [5] was above 40 µM in each case. The half-inhibitory concentration (IC50) in the series with HepG2 [4], in the series with HL-60 [7], in the series with HeLa [8] and in the series with MCF7 [10] was above 40 µM each time. Moreover, the Drug metabolism entry in series [6] was “Metabolite_Notdetected”.

For `C#CCOc1ccc(C[C@H](N)C(=O)N[C@H]2[C@@H](O)[C@H](n3cnc4c(N(C)C)ncnc43)O[C@@H]2CO)cc1`, the result in [11], in series [12] and in series [13] was Active.

Regarding `COc1ccc(C[C@H](NC(=O)OCCSSCCO)C(=O)N[C@H]2[C@@H](O)[C@H](n3cnc4c(N(C)C)ncnc43)O[C@@H]2CO)cc1`, the values for the remaining at 48 h, 100 µM in series [1], in series [3] and in [9] were above 90%, 29% and 42%, respectively. The concentration for half-maximal inhibition (IC50) at 48 h in series [2] is 12.6 µM; in series [5] it was 24.7 µM. Moreover, the half-maximal inhibitory concentration (IC50) was found to be 9.27 µM in the series with HepG2 [4], 56.7 µM in the series on HL-60 [7], 6.84 µM in the series on HeLa [8] and 27.5 µM in the series with MCF7 [10]. Besides, the outcome in series [14] was Active. The result in series [15] was Active.

For `C#CCOc1ccc(C[C@H](NC(=O)OC2CSSC2)C(=O)N[C@H]2[C@@H](O)[C@H](n3cnc4c(N(C)C)ncnc43)O[C@@H]2CO)cc1`, the result in series [16] and in [18] was Active. Besides, the “inhibition (INH)” value in series [17] is “Active”.

Consider `COc1ccc(C[C@H](N)C(=O)N[C@H]2[C@@H](O)[C@H](n3cnc4c(N(C)C)ncnc43)O[C@@H]2CO)cc1` [PUROMYCIN], for which the IC50 at 48 h in [2] was found to be 0.74 µM; in series [5], 1.28 µM. Besides, the IC50 with HepG2 [4] turned out to be 1.29 µM; in the series on HL-60 [7], 3.73 µM; with HeLa [8] it was 0.9 µM; with MCF7 [10], 1.06 µM.

As for `COc1ccc(C[C@H](NC(=O)OC2CCCC2)C(=O)N[C@H]2[C@@H](O)[C@H](n3cnc4c(N(C)C)ncnc43)O[C@@H]2CO)cc1`, the remaining at 48 h, 100 µM in [1], in series [3] and in series [9] was above 90% each time. The concentration for half-maximal inhibition (IC50) at 48 h in [2] and in series [5] was above 40 µM throughout. For the same compound, the half-inhibitory concentration (IC50) with HepG2 [4], in the series with HL-60 [7], in the series with HeLa [8] and in the series with MCF7 [10] was above 40 µM each time. For the same compound, in series [6], the Drug metabolism entry is reported as “Metabolite_Notdetected”.

In the case of `COc1ccc(C[C@H](NC(=O)OC2CSSC2)C(=O)N[C@H]2[C@@H](O)[C@H](n3cnc4c(N(C)C)ncnc43)O[C@@H]2CO)cc1`, the half-inhibitory concentration (IC50) with HepG2 [19] stood at 4.88 µM; in the series with HepG2 [21], 11.3 µM; in the series with HepG2 [4], 8.08 µM; with HL-60 [7], 55 µM; in the series on HeLa [8], 6.08 µM; in the series on MCF7 [10], 14.2 µM. In addition, the remaining at 48 h, 100 µM in series [1], in series [3] and in series [9] was above 90% throughout. Moreover, the half-maximal inhibitory concentration (IC50) at 48 h in [2] stood at 8.42 µM; in series [5] it was 19.5 µM. The result in series [20] was Active. Moreover, the “Ratio IC50” value in the series on HEK-293T worked out at 15.2; with HeLa [22], 6.8; in the series with HepG2 [23], 6.3; with MCF7 [25], 13.4; in the series on HL-60 [26] it was 14.7; with BEAS-2B it was 11.4. In series [24], the outcome was Active. Also, the Drug metabolism entry in series [27] and in series [28] was “Metabolite_Notdetected” in each case.

For orientation: IC50 means the concentration that inhibits the measured activity by half.

The values above are taken from ChEMBL document CHEMBL5316352, “Puromycin Prodrug Activation by Thioredoxin Reductase Overcomes Its Promiscuous Cytotoxicity” (J Med Chem, 2023).
